Experimental data: patent US9884863B2, “STAT3 inhibitor” (Board of Regents, The University of Texas System, priority 2013, dated 2018)
pIC50: −log10 of the molar value. Like-named read-outs stand apart in the source and are kept apart here.

Legend:
MCF-7 = test: MTS cell proliferation assay, MCF-7; type: cell-based, human
Protocol: Cancer cells (breast cancer cell lines MCF-7, MDA-MB-361, SKBR3 and MDA-MB-231, pancreatic cancer cell lines AsPC-1. […] Proliferation was measured by treating cells with the 3-(4,5-dimethylthiazol-2-yl)-5-(3-carboxymethoxyphenyl)-2-(4-sulfophenyl)-2H-tetrazolium) (MTS) in a CellTiter 96t AQueous Non-Radioactive Cell Proliferation Assay kit from Promega, Madison, Wis., USA). Absorbance of all wells was determined by measuring OD at 550 nm after 1 hr incubation at 37° C. on a 96-well iMark™ Microplate Absorbance Reader (BioRad, Hercules, Calif.). Each individual compound was tested in quadruplicate wells for each concentration, and the results were reported as mean absorption±s.e.
In Vitro Determination of Effects of Synthesized Compounds on Cancer Cell Proliferation. Cancer cells (breast cancer cell lines MCF-7 and MDA-MB-231, pancreatic cancer cell lines AsPC-1 and Panc-1) were […], 0.01, 0.1, 1, 5, 10, […] Proliferation was measured by treating cells with the 3-(4,5-dimethylthiazol-2-yl)-5-(3-carboxymethoxyphenyl)-2-(4-sulfophenyl)-2H-tetrazolium) (MTS) in a CellTiter 96t Aqueous Non-Radioactive Cell Proliferation Assay kit (Promega, Madison, Wis., USA). Absorbance of all wells was determined by measuring OD at 550 nm after 1 h incubation at 37° C. on a 96-well iMark™ Microplate Absorbance Reader (BioRad, Hercules, Calif.). Each individual compound was tested in quadruplicate wells for each concentration.

MDA-MB-231 = test: MTS cell proliferation assay, MDA-MB-231; type: cell-based, human; conditions: Homo sapiens
Protocol: Cancer cells (breast cancer cell lines MCF-7, MDA-MB-361, SKBR3 and MDA-MB-231, pancreatic cancer cell lines AsPC-1. BxPC3 and Panc-1) were seeded in 96-well plates at a density of 1000-2000 cells/well and treated with DMSO, 0.01, 0.1, 1, 5, 10, and […] of STAT3 individual inhibitors for 72 hrs. Proliferation was measured by treating cells with the 3-(4,5-dimethylthiazol-2-yl)-5-(3-carboxymethoxyphenyl)-2-(4-sulfophenyl)-2H-tetrazolium) (MTS) in a CellTiter 96t AQueous Non-Radioactive Cell Proliferation Assay kit from Promega, Madison, Wis., USA). Absorbance of all wells was determined by measuring OD at 550 nm after 1 hr incubation at 37° C. on a 96-well iMark™ Microplate Absorbance Reader (BioRad, Hercules, Calif.).
In Vitro Determination of Effects of Synthesized Compounds on Cancer Cell Proliferation. Cancer cells (breast cancer cell lines MCF-7 and MDA-MB-231, pancreatic cancer cell lines AsPC-1 and Panc-1) were seeded in 96-well plates at a density of 2×10^3 cells/well and treated with DMSO, 0.01, 0.1, 1, 5, 10, and 100 μM of individual STAT3 inhibitors for 72 h. Proliferation was measured by treating cells with the 3-(4,5-dimethylthiazol-2-yl)-5-(3-carboxymethoxyphenyl)-2-(4-sulfophenyl)-2H-tetrazolium) (MTS) in a CellTiter 96t Aqueous Non-Radioactive Cell Proliferation Assay kit (Promega, Madison, Wis., USA). Absorbance of all wells was determined by measuring OD at 550 nm after 1 h incubation at 37° C. on a 96-well iMark™ Microplate Absorbance Reader (BioRad, Hercules, Calif.). Each individual compound was tested in quadruplicate wells for each concentration. […]

[1] = Homo sapiens, MCF7, 72 h, read-out: IC50 MCF-7 (Table 1)
[2] = MCF-7, 48 hr, μM concentrations
[3] = MDA-MB-231, 72 h, read-out: IC50 MDA-MB-231 (Table 1)
[4] = Homo sapiens, MCF7, 72 h; read-out: IC50 MCF-7 (Table 1)
[5] = MDA-MB-231, ER-negative breast cancer, 72 hrs, >10 = no effect, read-out: IC50 MDA-MB-231 (Table 1)

| Structure (SMILES) | pIC50 (MCF-7; [4]) | pIC50 (MDA-MB-231; [5]) | pIC50 (MCF-7; [1]) | pIC50 (MDA-MB-231; [3]) | also measured |
| --- | --- | --- | --- | --- | --- |
| CN1CCC(Oc2ccc(Cl)cc2C(=O)Nc2ccc([N+](=O)[O-])cc2Cl)CC1 [HJC-3-81, 5-Chloro-N-(2-chloro-4-nitrophenyl)-2-(1-methylpiperidin-4-yloxy)benzamide] | – | – | 5.39 | 5.57 | inhibition on breast cancer cell proliferation (FIG. 1) (MCF-7; [2]): significant inhibition |
| N#C/C(=C\c1ccc(O)c(O)c1)C(=O)Nc1ccc2c(c1)S(=O)(=O)C=C2 [HJC-4-11, 2-Cyano-3-(3,4-dihydroxy-phenyl)-N-(1,1-dioxo-1H-1λ^6-benzo[b]thiophen-6-yl)-acrylamide] | – | – | 5.37 | < 5.00 | – |
| O=C(Nc1ccc2c(c1)S(=O)(=O)C=C2)c1cccnc1 [HJC-3-76, N-(1,1-Dioxo-1H-1λ^6-benzo[b]thiophen-6-yl)-nicotinamide] | – | – | 4.81 | < 5.00 | – |
| NCCCCOc1ccc(Cl)cc1C(=O)Nc1ccc([N+](=O)[O-])cc1Cl [HJC-4-31, 2-(4-Aminobutoxy)-5-chloro-N-(2-chloro-4-nitrophenyl)benzamide] | 5.43 | 5.63 | – | – | inhibition on breast cancer cell proliferation (FIG. 1) (MCF-7; [2]): significant inhibition |
| O=C(Nc1ccc2c(c1)S(=O)(=O)C=C2)c1cc(Cl)ccc1OCCBr [Compound 2] | – | – | – | – | pIC50 (MCF-7; Homo sapiens, MCF7, read-out: IC50 MCF-7 (Table 2)): < 5.00; pIC50 (MDA-MB-231; MDA-MB-231, read-out: IC50 MDA-MB-231 (Table 2)): < 5.00 |
| CN(C)CCOc1ccc(Cl)cc1C(=O)Nc1ccc2c(c1)S(=O)(=O)C=C2 [HJC-3-69, 5-Chloro-2-(2-dimethylaminoethoxy)-N-(1,1-dioxo-1H-1λ^6-benzo[b]thiophen-6-yl) benzamide] | – | – | 5.46 | 5.57 | inhibition on breast cancer cell proliferation (FIG. 1) (MCF-7; [2]): significant inhibition |
| Nc1ccc(NC(=O)c2cc(Cl)ccc2OC2CCNCC2)c(Cl)c1 [HJC-4-23, N-(4-Amino-2-chlorophenyl)-5-chloro-2-(piperidin-4-yloxy)benzamide] | – | – | < 5.00 | < 5.00 | – |
| O=C(Nc1ccc2c(c1)S(=O)(=O)C=C2)c1cc(Cl)ccc1OC1CCNCC1 [HJC-4-15, 5-Chloro-N-(1,1-dioxo-1H-1λ^6-benzo[b]thiophen-6-yl)-2-(piperidin-4-yloxy)benzamide] | 5.38 | 5.55 | – | – | – |
| O=C(Nc1ccc2c(c1)S(=O)(=O)C=C2)c1cc(Cl)ccc1OCCF [HJC-3-99, 5-Chloro-N-(1,1-dioxo-1H-1λ^6-benzo[b]thiophen-6-yl)-2-(2-fluoroethoxy)benzamide] | – | – | 5.40 | 5.35 | – |
| O=C(Nc1ccc2c(c1)S(=O)(=O)C=C2)c1cc(Cl)ccc1OCCN1CCOCC1 [HJC-3-9, 5-Chloro-N-(1,1-dioxo-1H-1λ^6-benzo[b]thiophen-6-yl)-2-(2-morpholin-4-yl-ethoxy) benzamide] | – | – | 6.31 | 5.27 | inhibition on breast cancer cell proliferation (FIG. 1) (MCF-7; [2]): significant inhibition |
| N#CCC(=O)Nc1ccc2c(c1)S(=O)(=O)C=C2 [HJC-3-61, 2-Cyano-N-(1,1-dioxo-1H-1λ^6-benzo[b]thiophen-6-yl)acetamide] | – | – | < 5.00 | < 5.00 | – |
| CN(C)CCOc1ccc(Cl)cc1C(=O)Nc1ccc([N+](=O)[O-])cc1Cl [HJC-3-57, 5-Chloro-N-(2-chloro-4-nitro-phenyl)-2-(2-dimethylamino-ethoxy)benzamide] | – | – | < 5.00 | < 5.00 | – |

Second part, led by results:

| pIC50 (MCF-7; [4]) | pIC50 (MDA-MB-231; [5]) | Structure (SMILES) | pIC50 (MCF-7; [1]) | pIC50 (MDA-MB-231; [3]) | also measured |
| --- | --- | --- | --- | --- | --- |
| < 5.00 | < 5.00 | CC(=O)NCCOc1ccc(Cl)cc1C(=O)Nc1ccc([N+](=O)[O-])cc1Cl [HJC-4-25, 2-(2-Acetylaminoethoxy)-5-chloro-N-(2-chloro-4-nitrophenyl)benzamide] | – | – | – |
| 5.39 | 5.54 | CN1CCN(CCOc2ccc(Cl)cc2C(=O)Nc2ccc3c(c2)S(=O)(=O)C=C3)CC1 [HJC-3-78, 5-Chloro-N-(1,1-dioxo-1H-1λ^6-benzo[b]thiophen-6-yl)-2-[2-(4-methylpiperazin-1-yl)-ethoxy]benzamide] | – | – | – |
| < 5.00 | < 5.00 | O=C(Nc1ccc([N+](=O)[O-])cc1Cl)c1cc(Cl)ccc1OCCN1CCCCC1 [HJC-3-84, 5-Chloro-N-(2-chloro-4-nitrophenyl)-2-(2-piperidin-1-yl-ethoxy)benzamide] | – | – | – |
| < 5.00 | < 5.00 | CC(=O)N1CCN(CCOc2ccc(Cl)cc2C(=O)Nc2ccc([N+](=O)[O-])cc2Cl)CC1 [HJC-4-27, 2-[2-(4-Acetylpiperazin-1-yl)-ethoxy]-5-chloro-N-(2-chloro-4-nitrophenyl)benzamide] | – | – | – |
| 4.91 | 5.06 | O=C(Nc1ccc([N+](=O)[O-])cc1Cl)c1cc(Cl)ccc1OCCN1CCNCC1 [HJC-2-52, 5-Chloro-N-(2-chloro-4-nitro-phenyl)-2-(2-piperazin-1-yl-ethoxy)benzamide] | – | – | – |
| 5.23 | 5.30 | COc1ccc(C(=O)Nc2ccc3c(c2)S(=O)(=O)C=C3)cc1 [HJC-2-15, N-(1,1-Dioxo-1H-1λ^6-benzo[b]thiophen-6-yl)-4-methoxybenzamide] | – | – | – |
| < 5.00 | < 5.00 | CS(=O)(=O)N(c1ccc(NC(=O)c2cc(Cl)ccc2OC2CCNCC2)c(Cl)c1)S(C)(=O)=O [HJC-4-35-1] | – | – | – |
| < 5.00 | < 5.00 | CN1CCN(CCOc2ccc(Cl)cc2C(=O)Nc2ccc([N+](=O)[O-])cc2Cl)CC1 [HJC-3-65, 5-Chloro-N-(2-chloro-4-nitrophenyl)-2-[2-(4-methylpiperazin-1-yl)-ethoxy]benzamide] | – | – | – |
| < 5.00 | < 5.00 | CC(=O)Nc1ccc(NC(=O)c2cc(Cl)ccc2OC2CCNCC2)c(Cl)c1 [HJC-4-32, N-(4-Acetylamino-2-chloro-phenyl)-5-chloro-2-(piperidin-4-yloxy)benzamide] | – | – | – |
| < 5.00 | < 5.00 | O=C(Nc1ccc2c(c1)S(=O)(=O)C=C2)c1ccncc1 [HJC-3-80, N-(1,1-Dioxo-1H-1λ^6-benzo[b]thiophen-6-yl)-isonicotinamide] | – | – | – |
| < 5.00 | < 5.00 | CC(=O)Nc1ccc2c(c1)S(=O)(=O)C=C2 [HJC-1-62, N-(1,1-Dioxo-1H-1λ^6-benzo[b]thiophen-6-yl)acetamide] | – | – | – |
| < 5.00 | < 5.00 | CS(=O)(=O)N1CCC(Oc2ccc(Cl)cc2C(=O)Nc2ccc([N+](=O)[O-])cc2Cl)CC1 [HJC-4-24, 5-Chloro-N-(2-chloro-4-nitrophenyl)-2-(1-methanesulfonylpiperidin-4-yloxy)benzamide] | – | – | – |
| 5.43 | 5.60 | O=C(Nc1ccc2c(c1)S(=O)(=O)C=C2)c1cc(Cl)ccc1OCCN1CCCCC1 [HJC-3-79, 5-Chloro-N-(1,1-dioxo-1H-1λ^6-benzo[b]thiophen-6-yl)-2-(2-piperidin-1-yl-ethoxy)benzamide] | – | – | – |
| < 5.00 | 4.86 | COC1CS(=O)(=O)c2cc(NC(=O)c3cc(-c4ccccc4)nc4ccccc34)ccc21 (centres unmarked) [HJC-1-57, 2-Phenyl-quinoline-4-carboxylic acid (3-methoxy-1,1-dioxo-2,3-dihydro-1H-1λ^6-benzo[b]thiophen-6-yl)amide] | – | – | – |
| 5.17 | < 5.00 | O=C(Nc1ccc2c(c1)S(=O)(=O)C=C2)c1ccccn1 [HJC-3-20, Pyridine-2-carboxylic acid (1,1-dioxo-1H-1λ^6-benzo[b]thiophen-6-yl)amide] | – | – | – |
| 5.44 | < 5.00 | O=C(Nc1ccc2c(c1)S(=O)(=O)C=C2)c1ccnc(Br)c1 [HJC-3-95, 2-Bromo-N-(1,1-dioxo-1H-1λ^6-benzo[b]thiophen-6-yl)-isonicotinamide] | – | – | – |
| 5.46 | 5.51 | NCCOc1ccc(Cl)cc1C(=O)Nc1ccc2c(c1)S(=O)(=O)C=C2 [HJC-3-93, 2-(2-Amino-ethoxy)-5-chloro-N-(1,1-dioxo-1H-1λ^6-benzo[b]thiophen-6-yl)benzamide] | – | – | – |
